# Source: US20240180877A1, “ANTI-ANXIETY COMPOSITION” (SUNTORY HOLDINGS LIMITED, priority 2021, published 2024)
# Assays:
# [1] = molecular target: Recombinant human α7 nicotinic acetylcholine receptors (nAChR (α7)) (Homo sapiens, UniProt P36544); format: binding; conditions: FIG. 3; 100 μM or 1000 μM; 0.4 nM [125I]-α-bungarotoxin; SH-SY5Y cell membranes
# [2] = molecular target: T1, Recombinant human α4/β2 nicotinic acetylcholine receptors (nAChR (α4β2)) (Homo sapiens, UniProt P17787+P43681); assay: Inhibition of [3H]cytisine binding to nAChR (α4β2) cell membranes; conditions: FIG. 3; 100 μM or 1000 μM; 0.6 nM [3H]cytisine; SH-SY5Y cell membranes
# T1 construct: host or cells: SH-SY5Y
# T1 sequence (P43681 29-627 limits assumed): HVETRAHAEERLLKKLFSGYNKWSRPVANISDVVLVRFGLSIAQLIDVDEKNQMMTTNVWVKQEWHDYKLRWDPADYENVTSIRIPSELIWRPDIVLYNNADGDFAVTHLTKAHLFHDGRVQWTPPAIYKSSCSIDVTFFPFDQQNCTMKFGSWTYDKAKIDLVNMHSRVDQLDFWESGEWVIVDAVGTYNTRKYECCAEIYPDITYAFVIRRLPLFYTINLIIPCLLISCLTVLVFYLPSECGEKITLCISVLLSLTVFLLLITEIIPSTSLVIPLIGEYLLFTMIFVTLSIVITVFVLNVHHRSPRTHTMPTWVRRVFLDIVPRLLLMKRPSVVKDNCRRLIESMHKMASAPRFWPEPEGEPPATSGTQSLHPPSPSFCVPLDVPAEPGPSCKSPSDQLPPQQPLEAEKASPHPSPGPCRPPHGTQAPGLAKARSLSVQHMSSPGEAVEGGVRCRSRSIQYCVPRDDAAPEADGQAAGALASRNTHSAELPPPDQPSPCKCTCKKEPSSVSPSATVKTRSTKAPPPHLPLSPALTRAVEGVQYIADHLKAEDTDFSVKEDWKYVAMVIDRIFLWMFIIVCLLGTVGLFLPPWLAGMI
# T1 sequence (P17787 26-502): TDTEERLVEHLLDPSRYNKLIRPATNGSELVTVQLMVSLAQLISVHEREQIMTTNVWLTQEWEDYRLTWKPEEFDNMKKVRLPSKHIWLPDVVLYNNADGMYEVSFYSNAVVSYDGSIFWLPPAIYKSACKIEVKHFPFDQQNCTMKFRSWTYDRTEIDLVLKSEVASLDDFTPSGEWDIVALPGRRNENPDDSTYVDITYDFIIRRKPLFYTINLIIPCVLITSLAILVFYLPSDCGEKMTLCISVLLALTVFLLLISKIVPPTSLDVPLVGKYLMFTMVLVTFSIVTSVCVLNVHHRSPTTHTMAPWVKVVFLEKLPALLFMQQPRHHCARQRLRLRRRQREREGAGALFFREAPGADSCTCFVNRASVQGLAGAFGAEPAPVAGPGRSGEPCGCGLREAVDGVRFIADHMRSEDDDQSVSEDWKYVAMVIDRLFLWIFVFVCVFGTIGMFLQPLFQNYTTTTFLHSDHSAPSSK
# Description: (§1) In order to evaluate molecular targets for reducing glutamate signaling by L-ergothioneine, nicotinic acetylcholine receptors associated with glutamate signaling were subjected to in vitro assay. The in vitro assay was commissioned to Eurofins Panlabs. The test was performed by the following method.
# Recombinant human α4/β2 nicotinic acetylcholine receptors (nAChR (α4β2)) expressed in human neuroblastoma-derived SH-SY5Y cells were used. Cell membranes (30 μg) of the cells expressing nAChR (α4β2) were incubated in Tris-HCl buffer (pH 7.4) with 0.6 nM [3H]cytisine and L-ergothioneine (L-ergothioneine concentration: 100 μM or 1000 μM) at 4° C. for 120 minutes. Non-specific binding was estimated in the presence of 10 μM nicotine bitartrate. The cell membranes were filtered through a filter and washed, and the activity of L-ergothioneine to inhibit binding of substrates was evaluated using radioactivity of [3H]cytisine as an index.
# [3] = molecular target: T2, Recombinant human α3/β4 nicotinic acetylcholine receptors (nAChR (α3β4)) (Homo sapiens, UniProt P30926+P32297); assay: Inhibition of [125I]epibatidine binding to nAChR (α3β4) cell membranes
# T2 construct: host or cells: CHO-K1
# T2 sequence (P30926 22-498): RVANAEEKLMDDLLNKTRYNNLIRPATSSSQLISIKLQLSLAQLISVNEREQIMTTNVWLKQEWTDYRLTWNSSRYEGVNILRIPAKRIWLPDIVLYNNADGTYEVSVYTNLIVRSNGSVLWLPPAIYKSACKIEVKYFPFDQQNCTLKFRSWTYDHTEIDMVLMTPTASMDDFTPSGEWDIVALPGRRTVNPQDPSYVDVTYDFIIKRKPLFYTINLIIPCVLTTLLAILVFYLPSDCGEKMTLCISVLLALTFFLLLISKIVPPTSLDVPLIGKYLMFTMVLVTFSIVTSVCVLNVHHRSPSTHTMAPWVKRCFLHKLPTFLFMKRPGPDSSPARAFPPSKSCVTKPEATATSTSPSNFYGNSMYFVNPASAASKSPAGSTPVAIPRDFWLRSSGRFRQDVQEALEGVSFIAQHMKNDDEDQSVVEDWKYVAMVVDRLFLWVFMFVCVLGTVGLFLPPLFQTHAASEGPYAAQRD
# T2 sequence (P32297 32-505): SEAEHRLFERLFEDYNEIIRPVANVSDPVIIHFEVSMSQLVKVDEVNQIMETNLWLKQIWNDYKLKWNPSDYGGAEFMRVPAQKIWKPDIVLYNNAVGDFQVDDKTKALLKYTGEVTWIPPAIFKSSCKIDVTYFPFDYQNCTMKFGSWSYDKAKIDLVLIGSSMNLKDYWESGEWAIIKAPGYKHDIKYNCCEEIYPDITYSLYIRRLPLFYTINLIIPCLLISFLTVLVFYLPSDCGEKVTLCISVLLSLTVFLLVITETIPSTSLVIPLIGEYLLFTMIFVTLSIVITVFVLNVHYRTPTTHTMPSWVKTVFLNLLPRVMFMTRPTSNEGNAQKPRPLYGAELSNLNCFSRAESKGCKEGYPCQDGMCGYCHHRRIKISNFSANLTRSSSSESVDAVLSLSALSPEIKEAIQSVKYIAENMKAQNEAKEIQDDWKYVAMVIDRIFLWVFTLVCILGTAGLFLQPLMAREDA
# Description: as §1
# Recombinant human α3/β4 nicotinic acetylcholine receptors (nAChR (α3β4)) expressed in Chinese hamster ovary-derived CHO-K1 cells were used. Cell membranes (0.6 μg) of the cells expressing nAChR (α3β4) were incubated in Tris-HCl buffer (pH 7.4) with 0.05 nM [125I]epibatidine and L-ergothioneine (L-ergothioneine concentration: 30 μM, 100 μM, 300 μM, 1000 μM, or 3000 μM) at 25° C. for 60 minutes. Non-specific binding was estimated in the presence of 10 μM epibatidine. The cell membranes were filtered through a filter and washed, and the activity of L-ergothioneine to inhibit binding of substrates was evaluated using radioactivity of [125I]epibatidine as an index.
# Recombinant human α7 nicotinic acetylcholine receptors (nAChR (α7)), sequence (P36544 23-502): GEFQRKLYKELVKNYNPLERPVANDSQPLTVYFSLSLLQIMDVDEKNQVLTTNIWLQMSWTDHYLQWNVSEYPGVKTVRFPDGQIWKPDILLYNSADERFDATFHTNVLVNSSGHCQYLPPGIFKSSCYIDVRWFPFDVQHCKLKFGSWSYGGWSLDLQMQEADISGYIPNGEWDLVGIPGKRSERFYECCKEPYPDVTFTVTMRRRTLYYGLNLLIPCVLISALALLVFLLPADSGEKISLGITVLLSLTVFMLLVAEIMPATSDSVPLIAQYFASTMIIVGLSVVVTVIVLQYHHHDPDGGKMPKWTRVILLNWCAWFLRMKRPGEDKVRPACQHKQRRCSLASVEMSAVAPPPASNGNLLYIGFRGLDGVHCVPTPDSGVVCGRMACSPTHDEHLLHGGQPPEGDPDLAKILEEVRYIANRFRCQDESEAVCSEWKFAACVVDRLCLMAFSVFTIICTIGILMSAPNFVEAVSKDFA
compound,measurement,setting,value
C[N+](C)(C)[C@@H](Cc1c[nH]c(=S)[nH]1)C(=O)[O-] [L-ergothioneine],activity to inhibit binding of substrates to α7 receptors,[1],showed the activity
same,activity to inhibit binding of substrates to α4β2 receptors,[2],showed the activity
same,activity to inhibit binding of substrates to α3β4 receptors,"[3]; FIG. 3, [125I]epibatidine",strong activity
same,IC50,"[3]; five concentrations 30-3000 μM, 0.05 nM [125I]epibatidine, CHO-K1 cell membranes, 25° C., 60 minutes, read-out: 50% inhibitory concentration",1110 µM
